Experimental data from ChEMBL document CHEMBL1201862, “PubChem BioAssay data set” (2004).
Calls of active or inactive are those of the source.

Tests used:
[1] = cytotoxicity toward DRD oncogenic fibroblasts, dose response, cell-based, non-viral oncogenic, luminescence (AID 1934); format: functional; details: Homo sapiens
[2] = test system: BJ; assay: cytotoxicity toward BJ-TERT fibroblasts, dose response, cell-based, RAS-independent, luminescence (AID 1933); format: functional; details: Homo sapiens
[3] = Shn3 3'UTR reporter inhibitors, dose response, cell-based, Clone20 osteoblasts, firefly luciferase, cherry-picked (AID 624132); format: functional;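 also: firefly luciferase luminescence from reporter carrying the Shn3 3'UTR in osteoblasts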
[4] = test system: BJ; assay: cytotoxicity toward BJ-TERT-LT-ST fibroblasts, dose response, cell-based, RAS-independent, luminescence (AID 1935); format: functional; details: Homo sapiens;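 also: BJ fibroblasts immortalized with TERT plus LT and ST oncogenes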
[5] = HepG2 cell cytotoxicity, dose response, cytotoxicity control for Shn3 inhibitor project, CellTiter-Glo, cherry-picked (AID 624134); format: functional, cell-based
[6] = test system: BJ; assay: cells; format: functional, cell-based; details: Homo sapiens
[7] = target: T1, Luciferin 4-monooxygenase (Photinus pyralis, UniProt P08659); assay: Counter Screen for Luciferase-based Assay Positives. [Related pubchem assays: 620, 618, 411 ]
T1 sequence (P08659 whole entry): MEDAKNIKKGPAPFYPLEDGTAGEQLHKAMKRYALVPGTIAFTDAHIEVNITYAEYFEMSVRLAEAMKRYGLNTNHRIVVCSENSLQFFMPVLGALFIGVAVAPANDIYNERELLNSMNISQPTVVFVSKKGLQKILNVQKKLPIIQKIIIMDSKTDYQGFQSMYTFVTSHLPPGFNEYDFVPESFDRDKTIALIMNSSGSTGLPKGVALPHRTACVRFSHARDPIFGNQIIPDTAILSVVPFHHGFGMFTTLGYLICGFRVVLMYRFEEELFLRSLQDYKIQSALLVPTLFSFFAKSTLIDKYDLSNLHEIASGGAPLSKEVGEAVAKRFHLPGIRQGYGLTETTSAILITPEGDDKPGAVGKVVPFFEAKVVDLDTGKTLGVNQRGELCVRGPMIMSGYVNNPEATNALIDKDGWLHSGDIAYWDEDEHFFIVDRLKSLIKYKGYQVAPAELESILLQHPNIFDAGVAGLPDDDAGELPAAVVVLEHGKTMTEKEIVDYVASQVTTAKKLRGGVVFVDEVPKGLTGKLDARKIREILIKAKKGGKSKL

[8] = Luminescence Cell-Based Dose Confirmation HTS to Identify Inhibitors of Platelet Dense Granule Release. [Related pubchem assays: 1663 (Primary HTS), 1678 (Summary of Project)]; format: functional
[9] = cytotoxicity in HEK-293T cells, dose response, cytotoxicity control for TCR NF-kB inhibitor project, luminescence, T-cell screen hits (AID 489026); format: functional, cell-based;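 also: cells exposed to compound about 14 hours before the viability readout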
[10] = test system: HT-1080; assay: cytotoxicity in HT1080 fibrosarcoma cells, cell-based, fluorescence readout (AID 620); format: functional; details: Homo sapiens
[11] = target: T1, Luciferin 4-monooxygenase; assay: firefly luciferase enzyme inhibitors, dose response, biochemical, luminescence (AID 1891)
[12] = target: Voltage-dependent T-type calcium channel subunit alpha-1H (Homo sapiens, UniProt O95180); format: functional;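 also: channel activity triggered by adding a high calcium stimulation buffer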
Chain of Voltage-dependent T-type calcium channel subunit alpha-1H (O95180 whole entry): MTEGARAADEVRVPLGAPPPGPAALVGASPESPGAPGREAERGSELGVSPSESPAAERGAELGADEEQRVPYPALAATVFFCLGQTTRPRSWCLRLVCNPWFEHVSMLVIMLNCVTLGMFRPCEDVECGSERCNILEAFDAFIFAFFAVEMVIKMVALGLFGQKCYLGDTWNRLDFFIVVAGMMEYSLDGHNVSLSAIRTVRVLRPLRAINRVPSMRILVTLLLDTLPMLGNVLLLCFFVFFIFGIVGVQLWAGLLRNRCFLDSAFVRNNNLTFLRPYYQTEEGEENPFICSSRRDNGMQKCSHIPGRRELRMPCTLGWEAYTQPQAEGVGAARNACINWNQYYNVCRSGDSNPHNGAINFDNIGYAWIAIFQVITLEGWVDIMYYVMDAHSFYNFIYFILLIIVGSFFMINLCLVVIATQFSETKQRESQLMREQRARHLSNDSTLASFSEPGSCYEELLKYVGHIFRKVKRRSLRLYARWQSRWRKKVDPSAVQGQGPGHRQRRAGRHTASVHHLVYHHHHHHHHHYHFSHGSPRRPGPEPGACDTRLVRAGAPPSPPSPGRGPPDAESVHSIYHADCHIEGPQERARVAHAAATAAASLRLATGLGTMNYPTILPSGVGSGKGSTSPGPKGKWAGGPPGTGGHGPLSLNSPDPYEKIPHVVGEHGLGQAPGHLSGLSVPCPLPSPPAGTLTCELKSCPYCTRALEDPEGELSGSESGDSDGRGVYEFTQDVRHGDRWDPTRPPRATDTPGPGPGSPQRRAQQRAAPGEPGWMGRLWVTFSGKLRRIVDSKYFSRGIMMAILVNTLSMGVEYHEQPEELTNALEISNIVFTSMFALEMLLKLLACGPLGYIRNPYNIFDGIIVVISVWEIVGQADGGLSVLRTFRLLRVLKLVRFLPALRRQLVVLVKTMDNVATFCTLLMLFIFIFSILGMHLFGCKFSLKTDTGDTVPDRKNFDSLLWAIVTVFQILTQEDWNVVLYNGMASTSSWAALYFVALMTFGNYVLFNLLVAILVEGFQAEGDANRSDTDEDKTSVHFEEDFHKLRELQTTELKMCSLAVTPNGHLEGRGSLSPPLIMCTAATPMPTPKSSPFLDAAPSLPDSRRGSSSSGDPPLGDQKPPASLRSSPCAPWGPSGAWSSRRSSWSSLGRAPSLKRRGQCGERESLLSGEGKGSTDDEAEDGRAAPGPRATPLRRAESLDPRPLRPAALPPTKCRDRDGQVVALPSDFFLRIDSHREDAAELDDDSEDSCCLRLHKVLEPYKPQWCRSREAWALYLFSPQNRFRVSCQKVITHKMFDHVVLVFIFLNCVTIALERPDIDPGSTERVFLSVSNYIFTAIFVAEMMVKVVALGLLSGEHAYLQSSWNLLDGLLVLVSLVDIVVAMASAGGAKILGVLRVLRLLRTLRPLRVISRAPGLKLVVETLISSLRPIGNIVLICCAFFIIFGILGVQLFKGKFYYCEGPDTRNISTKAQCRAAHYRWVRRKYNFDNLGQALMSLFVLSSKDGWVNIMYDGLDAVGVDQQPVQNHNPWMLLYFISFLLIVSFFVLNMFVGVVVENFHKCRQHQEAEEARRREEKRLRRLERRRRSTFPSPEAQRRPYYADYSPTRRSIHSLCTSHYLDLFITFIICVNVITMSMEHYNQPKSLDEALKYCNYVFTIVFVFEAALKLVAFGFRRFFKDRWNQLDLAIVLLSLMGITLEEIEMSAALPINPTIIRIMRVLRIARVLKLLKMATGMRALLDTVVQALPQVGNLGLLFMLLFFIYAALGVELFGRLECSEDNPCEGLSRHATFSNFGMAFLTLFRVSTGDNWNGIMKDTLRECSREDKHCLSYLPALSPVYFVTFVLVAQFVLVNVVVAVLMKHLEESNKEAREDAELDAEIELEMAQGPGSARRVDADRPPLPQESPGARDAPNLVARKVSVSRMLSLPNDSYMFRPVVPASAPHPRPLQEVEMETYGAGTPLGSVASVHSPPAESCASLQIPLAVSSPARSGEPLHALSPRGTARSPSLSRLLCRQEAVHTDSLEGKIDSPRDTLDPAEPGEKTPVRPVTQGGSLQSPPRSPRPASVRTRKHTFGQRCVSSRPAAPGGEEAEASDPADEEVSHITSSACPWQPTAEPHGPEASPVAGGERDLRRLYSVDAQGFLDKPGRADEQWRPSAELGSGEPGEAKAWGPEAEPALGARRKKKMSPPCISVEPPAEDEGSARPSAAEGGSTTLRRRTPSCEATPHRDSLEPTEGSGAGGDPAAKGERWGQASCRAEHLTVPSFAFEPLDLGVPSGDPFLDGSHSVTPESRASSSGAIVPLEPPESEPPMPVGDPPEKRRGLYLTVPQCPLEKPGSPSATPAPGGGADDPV

[13] = cytotoxicity in HEK-293T cells, dose response, cytotoxicity control for BCR NF-kB inhibitor project, luminescence, B-cell screen hits (AID 489021); format: functional, cell-based;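 also: HEK-293T cells carrying an NF-kB luciferase reporter; cells exposed to compound for about 14 hours before viability readout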
[14] = target: DNA dC->dU-editing enzyme APOBEC-3G (Homo sapiens, UniProt Q9HC16); assay: Dose Response confirmation of small molecule APOBEC3G DNA Deaminase Inhibitors via a fluorescence-based single-stranded DNA deaminase assay. [Related pubchem assays (depositor defined):AID493012, AID493028]; format: functional
Chain of DNA dC->dU-editing enzyme APOBEC-3G (Q9HC16 whole entry): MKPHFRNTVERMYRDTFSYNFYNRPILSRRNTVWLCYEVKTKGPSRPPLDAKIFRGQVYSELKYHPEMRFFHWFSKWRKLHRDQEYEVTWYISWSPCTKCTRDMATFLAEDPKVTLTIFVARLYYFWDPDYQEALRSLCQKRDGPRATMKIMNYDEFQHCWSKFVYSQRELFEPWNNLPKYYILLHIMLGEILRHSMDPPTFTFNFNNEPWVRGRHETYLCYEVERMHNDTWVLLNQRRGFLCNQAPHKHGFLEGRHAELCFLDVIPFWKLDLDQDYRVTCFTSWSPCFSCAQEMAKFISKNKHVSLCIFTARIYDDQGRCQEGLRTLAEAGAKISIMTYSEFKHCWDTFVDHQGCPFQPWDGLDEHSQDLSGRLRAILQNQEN

[15] = target: DNA dC->dU-editing enzyme APOBEC-3A (Homo sapiens, UniProt P31941); assay: APOBEC3A DNA deaminase inhibitors, dose response, biochemical (AID 504722); format: functional
Chain of DNA dC->dU-editing enzyme APOBEC-3A (P31941 whole entry): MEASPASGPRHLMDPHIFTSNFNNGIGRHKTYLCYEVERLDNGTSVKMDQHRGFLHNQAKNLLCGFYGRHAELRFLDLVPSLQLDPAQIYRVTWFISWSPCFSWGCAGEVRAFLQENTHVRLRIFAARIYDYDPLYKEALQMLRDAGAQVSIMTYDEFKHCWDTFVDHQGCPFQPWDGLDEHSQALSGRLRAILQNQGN

[16] = target: Large T antigen (Simian virus 40, UniProt P03070); format: functional, Betapolyomavirus macacae;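 also: Confirmatory-stage PubChem screen for compounds that inhibit SV40 T antigen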
Chain of Large T antigen (P03070 whole entry): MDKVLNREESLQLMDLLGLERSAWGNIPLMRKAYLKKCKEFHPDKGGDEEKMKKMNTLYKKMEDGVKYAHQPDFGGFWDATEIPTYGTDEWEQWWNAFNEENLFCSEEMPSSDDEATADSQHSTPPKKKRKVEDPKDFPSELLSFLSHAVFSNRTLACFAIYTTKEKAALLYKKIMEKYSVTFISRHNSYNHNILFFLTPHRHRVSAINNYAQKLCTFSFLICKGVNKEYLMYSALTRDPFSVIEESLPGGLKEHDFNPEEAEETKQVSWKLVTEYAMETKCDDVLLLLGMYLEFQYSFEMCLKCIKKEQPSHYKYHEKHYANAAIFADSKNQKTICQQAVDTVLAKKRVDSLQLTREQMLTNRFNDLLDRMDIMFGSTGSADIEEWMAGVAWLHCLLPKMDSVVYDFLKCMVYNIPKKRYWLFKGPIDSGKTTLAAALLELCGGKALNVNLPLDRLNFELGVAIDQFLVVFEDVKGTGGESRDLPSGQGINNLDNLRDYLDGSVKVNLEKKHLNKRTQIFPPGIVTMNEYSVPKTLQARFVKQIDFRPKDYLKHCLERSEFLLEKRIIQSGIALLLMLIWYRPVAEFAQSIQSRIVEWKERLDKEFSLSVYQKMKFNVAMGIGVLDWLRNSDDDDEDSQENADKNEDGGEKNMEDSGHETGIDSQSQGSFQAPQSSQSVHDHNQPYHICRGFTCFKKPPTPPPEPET

[17] = Luminescence Cell-Based Dose Response HTS to Identify Inhibitors of 5'UTR Stem-Loop Driven Prion Protein mRNA Translation in H4 Neuroglioblastoma Cells. [Related pubchem assays: 1827 (Project Summary), 1813 (Primary HTS)]; format: functional
[18] = inhibitors of SNCA 5'UTR-driven reporter translation, confirmation, H4 neuroglioma cells, luminescence (AID 1988); format: functional, cell-based
[19] = test system: HEK293; assay: inhibitors of LMP1-driven NF-kB reporter, dose response, cell-based, HEK293, luciferase, cherry-pick (AID 588343); format: functional; details: Homo sapiens
[20] = test system: INS1; assay: beta cell apoptosis inhibitors, cytokine rescue, dose response, luminescence, retest (AID 449756); format: functional, cell-based; details: Rattus norvegicus;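 also: cell death triggered by IL-1 beta plus TNF-alpha plus IFN-gamma mixture; protective hits raise ATP signal compared with cytokine alone wells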
[21] = test system: BJ; assay: cytotoxicity toward Ras-transformed BJeLR fibroblasts, dose response, cell-based, alamar blue fluorescence, cherrypicked samples (AID 2631); format: functional; details: Homo sapiens;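 also: confirmatory dose-response assay in RAS-dependent BJ fibroblasts engineered with TERT, LT and ST, with cytotoxicity read by fluorescence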
[22] = inhibitors of firefly luciferase expression or activity, dose response, H4 neuroglioma cells, luminescence (AID 1990); format: functional, cell-based
[23] = growth suppression of PTEN-null colon cells, dose response, cell-based, HCT116 PTEN knockout (AID 1047); format: functional;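 also: HCT116 colon tumor cells with PTEN knocked out; cells exposed to compound for 60 hours before readout; potency for loss of cell viability measured by luminescence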
[24] = A Cell Based Secondary Assay To Explore Cytotoxicity of Compounds that Sensitize Mycobacterium Tuberculosis to Beta-Lactam Antibiotics.; format: functional
[25] = growth suppression of beta-catenin-knockout colon cells, dose response, cell-based, HCT116, human colon tumor (AID 1045); format: functional;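 also: HCT116 colon tumor cells with beta catenin knocked out; cells exposed to compound for 60 hours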
[26] = test system: Escherichia coli; assay: microbe, parasite or virus in culture
[27] = inhibitors of Vif binding to APOBEC3G peptide, primary screen, biochemical, TR-FRET, GST-Vif 1-94, biotin-A3G peptide, dose response retest (AID 1117319); format: functional;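 also: TR-FRET signal of purified GST-Vif binding a biotinylated A3G peptide; inhibitors lower the FRET signal by blocking Vif and A3G binding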
[28] = target: T2, Leucine aminopeptidase (Plasmodium falciparum 3D7, UniProt Q8IL11); assay: P. falciparum M17LAP inhibitors, primary screen, biochemical, fluorogenic H-Leu-NHMec substrate, 1536-well (AID 1619); format: functional
T2 sequence (Q8IL11 whole entry): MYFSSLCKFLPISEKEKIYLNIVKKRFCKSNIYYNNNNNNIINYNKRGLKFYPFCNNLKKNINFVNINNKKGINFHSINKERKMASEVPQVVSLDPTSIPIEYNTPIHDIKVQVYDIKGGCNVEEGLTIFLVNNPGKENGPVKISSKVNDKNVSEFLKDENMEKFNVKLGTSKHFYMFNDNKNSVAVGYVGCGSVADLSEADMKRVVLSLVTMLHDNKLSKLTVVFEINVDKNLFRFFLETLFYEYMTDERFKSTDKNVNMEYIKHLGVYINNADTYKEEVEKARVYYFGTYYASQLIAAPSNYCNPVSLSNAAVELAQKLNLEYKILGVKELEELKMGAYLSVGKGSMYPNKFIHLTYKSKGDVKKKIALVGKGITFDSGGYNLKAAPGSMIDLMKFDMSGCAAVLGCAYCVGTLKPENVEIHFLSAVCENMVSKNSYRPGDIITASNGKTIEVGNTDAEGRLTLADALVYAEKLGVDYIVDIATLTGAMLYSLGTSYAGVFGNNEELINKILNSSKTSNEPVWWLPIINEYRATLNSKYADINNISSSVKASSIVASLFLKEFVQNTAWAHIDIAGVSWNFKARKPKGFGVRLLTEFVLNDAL

In the case of `Cc1ccc(-c2nc(-c3ccccn3)no2)cc1`, the EC50 [1] was 5.41 µM (active), the EC50 [2] was 7.04 µM (active) and the AC50 [3] was 1.96 µM (active). The EC50 [4] was 17.4 µM (active), the AC50 [5] was 8.99 µM (active) and the EC50 [6] was 5.39 µM (active). For the same compound, the EC50 [7] was 0.81 µM (active), the EC50 [8] was 2.52 µM (active) and the IC50 [9] was > 80 µM (inactive). The EC50 [10] was > 50 µM (not active) and the EC50 [11] was 0.593 µM (active).
With `Cc1ccc(-c2noc(CSc3nnc(Cc4ccccc4)n3-c3ccc(Cl)cc3)n2)cc1` the EC50 [12] was 4.98 µM (active).
In the case of `Cc1cccn2c(=O)c3cc(C(=O)NC4CCCCC4)c(=N)n(CCN4CCOCC4)c3nc12`, the IC50 [13] was > 80 µM (inactive).
For `ClCc1nnc(-c2ccccc2)o1`, the IC50 [13] was > 80 µM (inactive).
With `COc1ccccc1/C=C/C=N/n1c(S)nnc1-c1ccncc1` the IC50 [14] was 2.21 µM (active) and the IC50 [15] was > 100 µM (inactive).
With `CC(/C=N/n1c(S)nnc1-c1[nH]nc2c1CCC2)=C\c1ccco1` the IC50 [14] was 2.29 µM (active), the IC50 [16] was 32.3 µM (active) and the IC50 [15] was > 100 µM (inactive).
For `COc1cccc(C(=O)/C=C/Nc2cccc(O)c2)c1`, the EC50 [7] was 0.56 µM (active), the EC50 [8] was 2.07 µM (active) and the EC50 [10] was > 50 µM (not active). The EC50 [11] was 1.38 µM (active).
For `CCCCC/N=C\c1c(C)nn(-c2nc3ccccc3s2)c1O`, the EC50 [1] was 2.01 µM (active), the EC50 [17] was 6.84 µM (active) and the EC50 [2] was 1.26 µM (active). The EC50 [18] was 7.25 µM (active), the AC50 [19] was 3.89 µM (active) and the AC50 [20] was 2.69 µM (active). For the same compound, the EC50 [4] was 4.84 µM (active), the EC50 [6] was 2.32 µM (active) and the EC50 [7] was 1.93 µM (active). The EC50 [21] was > 133 µM (inactive), the EC50 [22] was 9.33 µM (inconclusive) and the EC50 [10] was > 50 µM (not active).
In the case of `C/C(=N/NC(=O)c1ccc(Cl)s1)c1ccc(NC(=O)COc2ccc(Cl)cc2)cc1`, the EC50 [23] was 24 µM (active), the CC50 [24] was > 40 µM (active) and the EC50 [25] was 22.2 µM (active).
For `CCc1ccc(-c2cc(C(=O)Nc3ccc(S(=O)(=O)NC(C)=O)cc3)c3ccccc3n2)cc1`, the AC50 [26] was 38.6 µM (active), the IC50 [27] was > 100 µM (active) and the IC50 [28] was 7.8 µM (active).
